Data reported in US9730906B2, “α-derivatives of cis-monounsaturated fatty acids for use as medicines” (UNIVERSITAT DE LES ILLES BALEARS, priority 2008, dated 2017).

How the values were obtained:
[1] = Rat obesity induced by cafeteria diet, preventative pre-treatment (Table 3); type: in vivo, Wistar Kyoto rats; details: 300 mg/kg oral, after two weeks on cafeteria diet; obese control 308 ± 17, lean control 280 ± 16; * lower than obese controls, ‡ indistinguishable
Method: In a further experiment, the effect of various molecules at a single dose (600 mg/kg) was investigated. […] In this sense, modification on the α-carbon and the double bond in cis configuration are crucial elements for producing the therapeutic effect indicated above. […] Finally, the effect of α-derivatives of cis-monounsaturated fatty acids on the prevention of obesity was investigated. For this, a model of rat obesity induced by a cafeteria diet, where the hypercaloric food increases the weight of the animals very markedly, was used. There were various experimental groups (see Table 3), each of which consisted of 6 female Wistar Kyoto rats of 250-300 g in weight. All the animals received a standard diet for 2 weeks. In addition, 2 of the groups received an oral preventative pre-treatment of vehicle and the other groups received 300 mg/kg of the fatty acids indicated below. Afterwards, one of the control groups was maintained on a standard diet (lean control) and the other was fed on a cafeteria diet (obese control). The treated animal groups were fed on the cafeteria diet. Preventative pre-treatment was maintained for all the groups. After two weeks on these diets, the lean control group had increased their body weight by an average of 16±16 g, while the obese control group had increased their body weight by an average of 43±17 g (statistically significance difference, p<0.01).
The weight of treated animals was statistically less than the weight of obese control rats and statistically indistinguishable from that of lean control rats.

[2] = tested on: A549 cells of human lung adenocarcinoma; assay: Prevention of tumour development in nude mice injected with A549 cells; type: in vivo; details: 400 mg/kg per day oral, 2 weeks before and one month after A549 injection, compared with fatty acids not of Formula I, p<0.05
Source text: FIG. 2. Preventative effect of various fatty acids against tumour development. […] Animals received treatment before injection of tumour cells and the treatment was subsequently maintained. Animals of the control group were not treated and the volume of their tumours was taken as the reference value (100%).
To determine whether the fatty acids of the invention have applications in the prevention of the development of tumour processes, an animal cancer model was used. This model consisted of immune-deprived animals ([Crl:Nu(Ico)-Fox 1] nude mice in which non-microcytic human lung cancer cells were injected (5×10^6 A549 cells per animal). The control group (infected with cancer cells but untreated) started to develop tumours that were visible after a few days. The sizes of the tumours were measured for the first time at 10 days after implanting the tumour and measurements continued for up to 31 days after the implantation with a digital calliper. The volume of the tumours was calculated with the following equation: v=w^2×l/2 where v is the volume of the tumour, w is its width and l is the length. Preventative treatments against development of the cancer were applied. To carry out these treatments, 400 mg/kg were administered per day for 2 weeks before the injection of tumour cells. This treatment was continued for one month after the implantation of the tumour cells and the volume of the tumours in the animals was measured. Each experimental group was composed of 8 animals. Oral administration of α-derivatives of cis-monounsaturated fatty acids prevented cancer development (A549 cells of human lung adenocarcinoma) (FIG. 2). […] Therefore it was concluded that the introduction of a double bond in the cis configuration in the structure of the fatty acid is a critical factor in the prevention and treatment by fatty acids of cancer development.

[3] = target: T1, cyclooxygenases-1 (COX-1) (Homo sapiens, UniProt P23219); assay: COX-1 activity in U937 differentiated monocytes (Cayman COX-1 inhibitor screening system); type: cell-based; details: 250 μM, 6 hours; compared with fatty acids not of Formula I, p<0.05
T1 construct: endogenous in cells; host or cells: U937 differentiated monocytes
Method: FIG. 19A. Effect of various fatty acids in the inhibition of the activity of cyclooxygenases-1 (COX-1) (Cayman COX-1 inhibitor screening system). […] Cell cultures (U937 differentiated monocytes) were treated with the fatty acids of the invention (250 μM, 6 hours).
(§1) In an additional study on the release of various proinflammatory cytokines (IL-1b, IL-6, IL-8, IL-10) and TNF-α in U937 monocytes stimulated with bacterial lipopolysaccharide (LPS), a marked reduction in the levels of these molecules was observed after treatments with OHHD at a concentration of 250 μM and 72 h incubation (Table 4). The effect of the α-derivatives of cis-monounsaturated fatty acids (250 μM, 6 h) on the activity and expression of the COX-1 and COX-2 cyclooxygenases was investigated in the same system.

cyclooxygenase-2 (COX-2) = assay: Cellular concentration of COX-2 in U937 differentiated monocytes (immunoblot); type: cell-based, human; details: 250 μM, 6 hours; compared with fatty acids not of Formula I, p<0.05
Method: FIG. 19B. Effect of various fatty acids in the inhibition (concentration of protein) of cyclooxygenase-2 (immunoblot of COX-2). […] Cell cultures (U937 differentiated monocytes) were treated with the fatty acids of the invention (250 μM, 6 hours).
as §1

A549 cells = assay: Growth/viability of A549 lung cancer cells in culture (cell count); type: cell-based, human; details: Doses of 200 to 400 μM, A549
Method: FIG. 3A. Cancer cells (A549) were treated with various concentrations of OHOD and MOD11 to determine whether the effect was dependent on the concentration. […] These cells were treated with different concentrations (0-400 μM) of OHOD and MOD11 and the number of cells was determined by flow cytometry.
FIG. 3B. Cancer cells (A549) were treated with compounds indicated on the horizontal axis for 48 hours at 150 μM. Then, the cells were counted and their number and percent of untreated (control) represented on the vertical axis.
Also, a series of α-derivatives of cis-monounsaturated fatty acids were used to investigate their effectiveness in cancer treatment. Two types of experiment were performed. Firstly, the dependency of the anti-tumour effect on concentration was investigated. To perform these experiments, human lung cancer cells (A549) were cultivated in RPMI medium, supplemented with 10% foetal bovine […], 10 mM Hepes (pH 7.4), 2 mM glutamine, 2 g/l bicarbonate, 1 g/l glucose, 100 units/ml penicillin, 0.1 mg/ml streptomycin, 0.25 μg/ml Amphotericin B, at 37° C. and in the presence of 5% CO2. In a first experimental series, these cells were treated with various concentrations (0-400 μM) of OHOD and MOD11 and the number of cells was determined by flow cytometry (FIG. 3A). […] In a second series, the anti-tumour effectiveness on A549 lung cancer cells was investigated at a single concentration (150 μM) and a time of 48 hours (FIG. 3B). […] Obviously, among the previous molecules, some lacked both modifications on the α-carbon and the double bond in cis configuration (EO, HDO, ODO) and had no therapeutic effect. […]

T1 sequence (P23219 24-599): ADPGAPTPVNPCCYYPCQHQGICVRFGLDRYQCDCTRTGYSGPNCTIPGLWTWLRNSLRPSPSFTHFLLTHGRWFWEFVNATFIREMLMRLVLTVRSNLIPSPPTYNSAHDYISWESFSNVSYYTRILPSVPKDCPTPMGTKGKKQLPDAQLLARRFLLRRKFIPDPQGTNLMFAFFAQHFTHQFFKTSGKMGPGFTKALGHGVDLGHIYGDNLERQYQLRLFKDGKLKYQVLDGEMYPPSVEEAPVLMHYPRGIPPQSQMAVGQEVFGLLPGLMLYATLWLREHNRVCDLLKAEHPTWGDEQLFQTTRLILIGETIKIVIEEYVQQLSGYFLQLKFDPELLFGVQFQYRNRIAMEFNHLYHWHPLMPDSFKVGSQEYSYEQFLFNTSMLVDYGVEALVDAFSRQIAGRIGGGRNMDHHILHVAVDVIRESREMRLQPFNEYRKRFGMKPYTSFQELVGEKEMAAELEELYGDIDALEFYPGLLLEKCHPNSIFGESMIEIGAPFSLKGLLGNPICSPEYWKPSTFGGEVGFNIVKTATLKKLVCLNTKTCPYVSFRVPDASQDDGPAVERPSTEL

SMILES	inhibition of COX-1 activity (% of control) [3]	cellular concentration of COX-2 (% of control) (cyclooxygenase-2 (COX-2))	Final weight [1]	tumour volume (prevention of tumour development) [2]	effect on tumour cells at 200 to 400 μM (A549 cells)
CCCCCCCC/C=C\CCCCCCC(C)C(=O)O (stereo not drawn) [MOD, α-Methyl-cis-Δ9-octadecenoic]	more significant effect	more significant effect	268 ± 12* g	more significant effect	
CCCCCCCC/C=C\CCCCCCC(N)C(=O)O (stereo not drawn) [AOD, α-Amino-cis-Δ9-octadecenoic]	more significant effect	more significant effect	272 ± 15* g	more significant effect	
CCCCCCCC/C=C\CCCCCCC(F)C(=O)O (stereo not drawn) [FOD, α-Fluoro-cis-Δ9-octadecenoic]	more significant effect	more significant effect	279 ± 13* g	more significant effect	
CCCCCC/C=C\CCCCCCCCC(C)C(=O)O (stereo not drawn) [MOD11, α-Methyl-cis-Δ11-octadecenoic]	more significant effect	more significant effect	274 ± 18* g	more significant effect	total elimination of tumour cells
CCCCCCC/C=C\CCCCCCCC(S)C(=O)O (stereo not drawn) [SHOD, α-Mercapto-cis-Δ10-octadecenoic]	more significant effect	more significant effect	269 ± 16* g	more significant effect	
CCCCCCCC/C=C\CCCCCCC(C(=O)O)C(F)(F)F (stereo not drawn) [TFMOD, α-Trifluoromethyl-cis-Δ9-octadecenoic]	more significant effect	more significant effect	278 ± 14* g	more significant effect	

Second part, led by results:

inhibition of COX-1 activity (% of control) [3]	cellular concentration of COX-2 (% of control) (cyclooxygenase-2 (COX-2))	SMILES	Final weight [1]	tumour volume (prevention of tumour development) [2]	effect on tumour cells at 200 to 400 μM (A549 cells)
more significant effect	more significant effect	CCCCCCCC/C=C\CCCCCCCCCCC(O)C(=O)O (stereo not drawn) [OHDE, α-Hydroxy-cis-Δ13-docosenoic]	273 ± 15* g	more significant effect	
more significant effect	more significant effect	CCCCCC/C=C\CCCCCCCCC(O)C(=O)O (stereo not drawn) [OHOD11, α-Hydroxy-cis-Δ11-octadecenoic]	269 ± 12* g	more significant effect	
more significant effect	more significant effect	CCCCCCCC/C=C\CCCCCCCCC(O)C(=O)O (stereo not drawn) [OHEE, α-Hydroxy-cis-Δ11-eicosenoic]	264 ± 11* g	more significant effect	
